According to PubChem BioAssay (NCI):
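Protocol summary: plate cells (96-well), add compound at 5 concentrations, incubate 48 h, interpolate endpoints linearly. GI50 is the concentration that inhibits growth by half. TGI is the concentration that stops growth completely.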

Experiments:
Assay in all cases: DTP human tumour cell line panel, 48 h
TK-10 renal = system: TK-10 renal
SNB-19 CNS = system: SNB-19 CNS
BT-549 breast = system: BT-549 breast
MDA-MB-435 = system: MDA-MB-435
OVCAR-4 ovarian = system: OVCAR-4 ovarian
K-562 leukemia = system: K-562 leukemia
SK-MEL-2 melanoma = system: SK-MEL-2 melanoma
SF-539 CNS = system: SF-539 CNS
HCT-15 colon = system: HCT-15 colon
MDA-MB-231 breast = system: MDA-MB-231 breast
A549 NSCLC = system: A549 NSCLC
SF-295 CNS = system: SF-295 CNS
MCF7 breast = system: MCF7 breast
SK-MEL-5 melanoma = system: SK-MEL-5 melanoma
HT29 colon = system: HT29 colon
HCT-116 colon = system: HCT-116 colon
NCI-H460 lung = system: NCI-H460 lung
RXF 393 renal = system: RXF 393 renal

SMILES | TGI (TK-10 renal) [µM] | TGI (SNB-19 CNS) [µM] | TGI (BT-549 breast) [µM] | TGI (MDA-MB-435) [µM] | TGI (OVCAR-4 ovarian) [µM] | TGI (K-562 leukemia) [µM] | TGI (SK-MEL-2 melanoma) [µM] | TGI (SF-539 CNS) [µM] | TGI (HCT-15 colon) [µM] | TGI (MDA-MB-231 breast) [µM] | TGI (A549 NSCLC) [µM] | TGI (SF-295 CNS) [µM] | TGI (MCF7 breast) [µM] | TGI (SK-MEL-5 melanoma) [µM] | TGI (HT29 colon) [µM] | TGI (HCT-116 colon) [µM] | TGI (NCI-H460 lung) [µM] | TGI (RXF 393 renal) [µM] | GI50 (SF-539 CNS) [µM] | GI50 (HCT-116 colon) [µM]
COc1ccc(C[C@@H](CO)NC2=C(C#N)CCC2)cc1 | > 100 | > 100 | > 100 | > 100 | > 100 | > 100 | > 100 | > 100 | > 100 | > 100 | > 100 | > 100 | > 100 | > 100 | > 100 | > 100 | > 100 | > 100 |  | 
O=c1[nH]nc(-c2ccccc2)n1/N=C/c1ccc([N+](=O)[O-])cc1 | 55 | > 100 | > 100 | > 100 | > 100 | > 100 | 67.3 | > 100 | > 100 | > 63.8 | > 100 | > 77.7 | > 100 | > 100 | > 100 | > 100 | > 100 | 28.1 |  | 
O=C(O)c1ccccc1/C=N/NC1=NCCN1 | > 100 | > 100 | > 100 | > 100 | > 100 | > 100 | > 100 | > 100 | > 100 | > 100 | > 100 | > 100 | > 100 | > 100 | > 100 | > 100 | > 100 | > 100 |  | 
COC(=O)C1=C(O)C(C(=O)OC)[C@]2(O)[C@H](C(=O)OC)[C@H]1C[C@@H](c1ccc(Cl)cc1)[C@H]2C(=O)OC (stereo partly drawn) | 33.5 | 29.8 | 38.9 | 25.4 | > 100 | > 100 | 6.51 | 20.9 | 47.7 | 37.6 | 89.5 | 20.6 | 24.1 | 20.5 | 32 | 17.3 | 49.4 | 19.1 |  | 
Cc1cc2cc3c(cc2c(-c2ccc([N+](=O)[O-])cc2)n1)OCO3 | > 100 | > 100 | 73.7 | > 100 | 56.8 | > 100 | > 100 | 72.4 | > 100 | 84.4 | > 100 | > 100 | > 100 | > 100 | > 100 | > 100 | > 100 | > 100 |  | 
COc1cc2ncnc(Nc3cccc(Cl)c3)c2cc1OC | 3.61 | 82.1 | 13.7 | 34.1 | 75.8 | 47.3 | 30 | 32.8 | 52.8 | 54 | 49 | 42.4 | 72.2 | 17.4 | 34.9 | 46.2 | 40.7 | 26.8 |  | 
COC(=O)C1=C(O)C(C(=O)OC)[C@]2(O)[C@H](C(=O)OC)[C@H]1C[C@@H](c1ccc(OC)c(OC)c1)[C@H]2C(=O)OC (stereo partly drawn) | > 100 | 73.3 | 83.7 | 44.2 | > 100 | 77.3 | 99.4 | 20.7 | 36.5 | > 100 | 54.4 | 94.7 | > 100 | > 100 | > 100 | > 100 | 42.1 | 48.4 |  | 
CC(=O)c1sc2c(c1OC(=O)c1ccco1)c(=O)n(-c1ccccc1)c(=S)n2-c1ccccc1 | 92.6 | 88.2 | 62.3 | 61.7 | 95 | > 100 | 39.2 | 20.6 | 41.9 | 47.1 | > 100 | 49.2 | 55.4 | 18.9 | > 100 | 41.1 | > 100 | 28.2 |  | 
COC(=O)c1cc(C)ccc1C1CN=NC12Cc1ccc(C)cc1C2=O (stereo not drawn) | > 100 | > 100 | > 100 | > 100 | > 100 | > 100 | > 100 | > 100 | > 100 | > 100 | > 100 | > 100 | 85.8 | 31.9 | > 100 | > 100 | > 100 | > 100 |  | 
COc1nc(N=P(c2ccccc2)(c2ccccc2)c2ccccc2)cc(=O)[nH]1 | > 100 | > 100 | > 100 | > 100 | > 100 | > 100 | > 100 | > 100 | > 100 | > 100 | > 100 | > 100 | > 100 | > 100 | > 100 | > 100 | > 100 | > 100 |  | 
c1ccc(-c2nc3ccccc3n3c(CN4CCCCC4)nnc23)cc1 | > 100 | > 100 | > 100 | > 100 | > 100 | > 100 | > 100 | > 100 | > 100 | > 100 | > 100 | > 100 | > 100 | > 100 | > 100 | > 100 | > 100 | > 100 |  | 
CC1(C)C2CCC(CN)(C2)C1N (stereo not drawn) | > 100 | > 100 | > 100 | > 100 | > 100 | > 100 | > 100 | > 100 | > 100 | > 100 | > 100 | > 100 | > 100 | > 100 | > 100 | > 100 | > 100 | > 100 |  | 
O=c1oc2ccccc2cc1-c1csc(Nc2ccc(F)cc2)n1 | 8.21 | > 37.6 | 17.4 | 17 | > 36 | 20.6 | 39.2 | 3.5 | 11.2 | 26 | 3.23 | 10.7 | 15.5 | 23.9 | 14.2 | 5.65 | 22.3 | 28.2 |  | 
CCCCCCCCCCCCN(CC(O)C(O)C(OC1OC(CO)C(O)C(O)C1O)C(O)CO)C(=O)CCCCCCCCCCC (stereo not drawn) | 29.9 | 35.4 | 40.4 | 30.8 | 44.5 | 35.5 | 58.8 | > 100 | 35.4 | 42.7 | 55.3 | 37.3 | > 100 | 31.3 | 34.4 | 36.4 | 39.7 | 67.5 |  | 
COc1ccc2c(c1)-c1nc(=S)n(CCCN(C)C)c3ccc([N+](=O)[O-])c(c13)N2 | 17.1 | 11 | 21.7 | 16.7 | 2.52 | 3.04 | 31.6 | 6.08 | 17.1 | 2.1 | 14.8 | 21.2 | 3.01 | 10.1 | 1.95 | 2.93 | 10.3 | 1.87 |  | 
OC1(c2ccc(Cl)cc2)C(N2CCCC2)c2ccccc2C2=NCCN21 (stereo not drawn) | 40 | > 100 | 65.2 | 86.7 | 87.9 | 47.5 | 45 | 39.4 | > 100 | > 100 | > 100 | 30.9 | 94.8 | 28.4 | 32.4 | 46.6 | > 100 | 91.9 |  | 
CCOC(=O)C1(Cc2ccccc2)C=CN(C(=O)c2ccccc2)C=C1 | 88.3 | > 100 | > 100 | 90.5 | > 100 | > 100 | 49.6 | > 100 | > 100 | > 100 | > 100 | > 100 | > 100 | 29.8 | > 100 | > 100 | > 100 | > 100 |  | 
Ic1ccc2c(c1)N(c1ccccc1)c1cc(N=c3ccc4nc5ccc(I)cc5n(-c5ccccc5)c-4c3)ccc1N2 | > 100 | > 100 | > 100 | 94 | > 100 | > 100 | > 100 | > 100 | > 100 | > 100 | > 100 | > 100 | > 100 | > 100 | 73.1 | > 100 | > 100 | > 100 |  | 
COC(=O)CC(c1cn(S(=O)(=O)c2ccc(C)cc2)c2ccccc12)C1C[C@@H](C(=O)OC)N(C(=O)OC(C)(C)C)C1=O (stereo partly drawn) | > 100 | > 100 | > 100 | > 100 | > 100 | > 100 | > 100 | 65.6 | > 100 | > 100 | > 100 | > 100 | > 100 | > 100 | > 100 | > 100 | > 100 | > 100 |  | 
CCOC(=O)c1oc2cc3c(c4c2c1-c1ccccc1N4C)C=CC(C)(C)O3 | 27.3 | > 54.9 | 59.6 | > 100 | > 100 | > 91 | > 76.4 | 21.2 | > 100 | > 100 | > 100 | 30.8 | 26.8 | 97.9 | > 64 | > 100 | > 100 | 28.9 |  | 
CC(C)(C)OC(=O)CN1C(=O)CC1CC(=O)c1ccccc1 (stereo not drawn) | 93.2 | 41.9 | 35.5 | 41.2 | > 100 | 34.2 | 32.2 | 34.9 | 37.5 | 31.1 | > 100 | 73.8 | 36.1 | 33.1 | 37.4 | 49.7 | 77.1 | 43.5 |  | 
CCC/C=C/c1cc2c(cc1O)CC[C@@H]1[C@@H]2CC[C@]2(C)[C@@H](O)CC[C@@H]12 | 38 | > 56.6 | 36.1 | 32.1 | 44.9 | 45.5 | 32.1 | 35.7 | 39.9 | 33.7 | 36.9 | 34.9 | 52.6 | 30.2 | 32.9 | 31.6 | 33 | 33.2 | 20.2 | 17.2
